# Data taken from patent publication US9594084B2, “Phosphorylation of histones and uses thereof” (H. LEE MOFFITT CANCER CENTER AND RESEARCH INSTITUTE, priority 2012, dated 2017).
# Experiments:
# [1] = test system: core histone genes located in Hist1 cluster; assay: qRT-PCR of histone genes (8-histone gene signature) in synchronized cells; format: cell-based; details: MK1775 0.6 uM, 14 hr, 8.30 hours post-release
# Experimental: FIG. 33a-33h show a 8-histone gene signature. a-h, Synchronized cells treated with WEE1 inhibitor, MK1775 (0.6 uM, 14 hr) were harvested at indicated time points post-release. Total RNA was prepared followed by quantitative RT-PCR for 8 histone genes.
# Human cells have 55 distinct histone genes each encoding a fraction of core histones. This study determined histone levels using 20 of these genes. In untreated cells, rapid decrease in transcripts of all of these histone genes was observed when RNA levels of 6.30 hours post-release samples (late S phase) were compared with 8.30 hours post-release (G2/M phase) samples (FIGS. 33a-33h).
# Based on extensive transcriptional profiling of 20 histone genes, this study identified 8 genes (H2Bm, H2bn, H2Bl, H3 h, H4j, H2Ai, H2Ak and H2Bk) as being representative of global histone transcriptional output, termed as the 8-histone gene signature.
# [2] = test system: pY37-H2B marks within IDH2; assay: ChIP-qPCR of pY37-H2B marks within IDH2 in GBM derived cell lines; format: cell-based, human; details: U87
# Excerpt: FIG. 44a-44f show H2B Tyr37-phosphorylation marks are deposited within IDH2.
# To validate the role of WEE1 in IDH2 marking, chromatin from GBM derived cell line U87 was immunoprecipitated using the pY37-H2B antibody followed by qPCR. […] Similar data was obtained with another human GBM derived cell lines T98G (FIG. 44E).
# [3] = target: WEE1 (Homo sapiens, UniProt P30291); assay: H4 Tyr88 peptide ELISA in vitro kinase assay with purified WEE1; format: biochemical; set-up: GST; purchased Invitrogen; details: read at 450 nm
# Sequence of WEE1 (P30291 whole entry): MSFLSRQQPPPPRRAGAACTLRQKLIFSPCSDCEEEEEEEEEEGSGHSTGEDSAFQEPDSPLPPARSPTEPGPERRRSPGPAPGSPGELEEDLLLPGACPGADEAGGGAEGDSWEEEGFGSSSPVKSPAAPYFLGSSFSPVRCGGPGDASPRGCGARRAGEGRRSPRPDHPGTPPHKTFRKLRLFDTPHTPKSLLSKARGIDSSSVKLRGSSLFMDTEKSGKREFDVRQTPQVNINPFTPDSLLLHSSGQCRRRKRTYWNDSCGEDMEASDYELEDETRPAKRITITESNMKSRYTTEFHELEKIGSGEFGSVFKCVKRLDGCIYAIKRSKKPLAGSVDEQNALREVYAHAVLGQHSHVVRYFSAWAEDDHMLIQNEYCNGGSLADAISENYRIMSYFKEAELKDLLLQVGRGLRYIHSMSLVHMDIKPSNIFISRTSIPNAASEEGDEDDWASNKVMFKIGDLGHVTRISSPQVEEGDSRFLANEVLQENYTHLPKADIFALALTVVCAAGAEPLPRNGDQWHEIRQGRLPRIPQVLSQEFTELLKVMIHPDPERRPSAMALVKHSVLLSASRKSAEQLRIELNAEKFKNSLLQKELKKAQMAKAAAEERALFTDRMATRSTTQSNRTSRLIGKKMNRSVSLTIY
# Experimental: Biotinylated unphosphorylated and Tyr88-phosphorylated H4 peptides were immobilized on streptavdin 96-well plates. […] ELISA was performed as described in text.
# WEE1 and Ack1 are two non-receptor tyrosine kinases or NRTKs that have known nuclear functions. To determine whether WEE1 and Ack1 can directly target H4 for Tyr88-phosphorylation, this study performed in vitro kinase assay. In brief, the Streptavidin coated 96-well plates (R&D systems) were incubated with biotinylated H4-derived peptide […] (SEQ ID NO: 64) for 1 hour. The plates were washed and the purified WEE1 or Ack1 were added in kinase buffer (20 mM HEPES, 150 mM NaCl, 0.5% Triton X-100, 10% Glycerol, phosphatase and protease inhibitors) containing ATP and MgCl2. After 2 hours of incubation, plates were washed with phosphate buffered saline containing 0.1% Tween 20 (PBST) and blocked in 3% BSA. The pY88-H4 antibodies (at 1:500 dilution) were added and incubated for 1 hour. Unbound antibodies were washed and HRP-conjugated anti-mouse secondary Antibodies (1:2000) were added. Magnitude of phosphorylation was detected using developer solution (OPD tablets, Sigma) and the plates were read at 450 nm. As a negative control, no kinase and no peptide reactions were used. The biotinylated phosphopeptide […]p[…] (SEQ ID NO: 65) was used as a positive control.
# [4] = test system: pTyr37-H2B upstream of the Hist1 cluster; assay: Native ChIP-qPCR with pTyr37-H2B antibody at Hist1 Site I and II in synchronized MEFs; format: cell-based, mouse; details: 6.30 hours post-release
# Experimental: FIG. 1A is a diagram illustrating the position of histone genes in mouse Hist1 subcluster 1 showing two pTyr37-H2B binding sites. Starting nucleotide position is shown above. Subclusterl is conserved between human and mouse. FIG. 1B-1D are bar graphs showing Native Chromatin immunoprecipitation (ChIP) (% input DNA) in synchronized MEFs treated with WEE1 inhibitor or untreated and harvested at 0 and 6.30 hours post-release. Native ChIP was performed using pTyr37-H2B or IgG antibodies followed by quantitative PCR using primers corresponding to Site I (FIG. 1B), Site II (FIG. 1C) and control site (FIG. 1D). Data shown are representative of three independent experiments. *p=0.001; **p=0.006. FIG. 1E is bar graph showing ChIP in synchronized MEFs harvested at 0 and 6.30 hours post-release using WEE1 or IgG antibodies followed by quantitative PCR using primers corresponding to Site II. […] FIG. 1F is bar graph showing ChIP in cells transfected with control or WEE1 siRNAs performed using pTyr37-H2B antibodies followed by quantitative PCR using primers corresponding to Site II. […]
# As a first step, extensive standardization of pTyr37-H2B antibodies were performed for its usage in ChIP. […] Pellets were resuspended and the resulting DNA was quantified on a NanoDrop spectrophotometer. Extrapolation to the original chromatin volume allowed quantitation of the total chromatin yield. […]
structure (smiles),measurement,setting,value
C=CCn1c(=O)c2cnc(Nc3ccc(N4CCN(C)CC4)cc3)nc2n1-c1cccc(C(C)(C)O)n1 [MK-1775],histone mRNA levels,[1],did not decrease
same,pY37-H2B marks within IDH2,[2],completely erased
same,H4 Tyr88-phosphorylation by WEE1,[3],significantly decreased
same,occurrence of pTyr37-H2B at site I and II,[4],significantly reduced
